Values joined by “and” are separate entries in the source; they are usually repeats but may differ in a detail not shown here. Equal entries are not always repeated. Structures can show the parent of a compound that is named as a salt. Where two headings read alike, the source gives them in different places.
Columns and labels:
[1] = test system: Salmonella typhimurium TA 100; assay: Back mutation test, TA100; assay type: cell-based
Method: (§1) A test was carried out in accordance with the “Standard of Mutagenicity Tests Using Microorganisms” (Ministry of Labor Notification No. 77, 1988) (partial revision by Ministry of Labor Notification No. 67, 1997) and “Regarding the Tests Concerning Novel Chemical Substances and the like” (dated Nov. 21, 2003: Yaku-Shoku-Hatsu No. 1121002, 2003.11.13 Sei-Kyoku, No. 2, Kan-Ho-Ki-Hatsu No. 031121002). To 0.1 ml of a solution prepared by dissolving 5% (w/v) of 5-aminolevulinic acid phosphate in distilled water (Wako Pure Chemical Industries), 0.5 ml of 0.1 M sodium-phosphate buffer (pH 7.4) (0.5 ml S9 mix in the case of metabolism activation test) was added, and 0.1 ml of each test strain suspension (5 strains of histidine-less Salmonella typhimurium TA 100, TA 98, TA 1535 and TA 1537 and tryptophan-less Escherichia coli WP2 uvrA were used (Japan Bioassay Research Center)) was further added thereto, followed by pre-incubation at 37° C. for 20 minutes while shaking. After completion of the culturing, 2.0 ml of top agar kept at 45° C. in advance was added thereto and layered on a minimum glucose agar plate medium. In this case, 2 plates were arranged for each dosage. However, 3 plates were arranged for a solvent control (negative control). […] In the measurement, an inner area of about 80 mm in diameter of a plate of 86 mm in diameter (84 mm in inner diameter) was measured using an automatic colony analyzer (CA-11: manufactured by System Science), and calculated by carrying out area correction and counting loss correction using a personal computer. However, since reliability of the automatic colony analyzer is reduced when the number of colonies is 1,500 or more, 5 points in the plate were manually measured under the stereoscopic microscope to carry out area correction of the average value. A dosage setting test was carried out on 7 dosages diluted at a common ratio of 4, using a dosage of 5,000 μg/plate as the maximum which is the maximum dosage defined by the guideline. […] Growth inhibition of the strains by this substance to be tested was not found. […] Thus, this test was carried out by setting 5 dosages diluted at a common ratio of 2, using a dosage of 5,000 μg/plate as the maximum which is the maximum dosage defined by the guideline.

[2] = test system: Salmonella typhimurium TA 98; assay: Back mutation test, TA98; assay type: cell-based
Method: as §1

[3] = test system: Escherichia coli WP2 uvrA; assay: Back mutation test, WP2uvrA; assay type: cell-based
Method: as §1

[4] = test system: Salmonella typhimurium TA 1537; details: TA1537; for Positive control, number of back mutation, single plates: dihydrochloride
Method: (§2) A test was carried out in accordance with the “Standard of Mutagenicity Tests Using Microorganisms” (Ministry of Labor Notification No. 77, 1988) (partial revision by Ministry of Labor Notification No. 67, 1997) and “Regarding the Tests Concerning Novel Chemical Substances and the like” (dated Nov. 21, 2003: Yaku-Shoku-Hatsu No. 1121002, 2003.11.13 Sei-Kyoku, No. 2, Kan-Ho-Ki-Hatsu No. 031121002). To 0.1 ml of a solution prepared by dissolving 5% (w/v) of 5-aminolevulinic acid phosphate in distilled water (Wako Pure Chemical Industries), 0.5 ml of 0.1 M sodium-phosphate buffer (pH 7.4) (0.5 ml S9 mix in the case of metabolism activation test) was added, and 0.1 ml of each test strain suspension (5 strains of histidine-less Salmonella typhimurium TA 100, TA 98, TA 1535 and TA 1537 and tryptophan-less Escherichia coli WP2 uvrA were used (Japan Bioassay Research Center)) was further added thereto, followed by pre-incubation at 37° C. for 20 minutes while shaking. After completion of the culturing, 2.0 ml of top agar kept at 45° C. in advance was added thereto and layered on a minimum glucose agar plate medium. In this case, 2 plates were arranged for each dosage. However, 3 plates were arranged for a solvent control (negative control). […] In the measurement, an inner area of about 80 mm in diameter of a plate of 86 mm in diameter (84 mm in inner diameter) was measured using an automatic colony analyzer (CA-11: manufactured by System Science), and calculated by carrying out area correction and counting loss correction using a personal computer. However, since reliability of the automatic colony analyzer is reduced when the number of colonies is 1,500 or more, 5 points in the plate were manually measured under the stereoscopic microscope to carry out area correction of the average value. A dosage setting test was carried out on 7 dosages diluted at a common ratio of 4, using a dosage of 5,000 μg/plate as the maximum which is the maximum dosage defined by the guideline.

[5] = test system: Salmonella typhimurium TA 1535; details: TA1535
Method: as §2

radish = assay: Plant activating effect, foliar application, radish; assay type: in vivo; details: 21 days, 12 seeds
Method: After 600 g of upland soil was packed in a porcelain pot of 12 cm in inner diameter, 12 grains of radish seeds were sowed therein, covered with 5 mm in depth of the soil and allowed to grow in a green house. Foliar application treatment was carried out once a day using the following application liquids. Conditions of the leaves 21 days thereafter were observed.

[6] = test system: spiderwort Commelina communis; assay: Plant activating effect, foliar application, spiderwort; assay type: in vivo; details: 21 days, 12 plants
Method: A total of 12 pots, in which 600 g of volcanic ash soil was packed in a porcelain pot of 12 cm in inner diameter, and 1 plant of a spiderwort Commelina communis grown to a height of 15 cm was planted in 1 pot, were prepared and placed under a constant temperature environment of 20° C., and foliar application treatment was carried out once a day using the following application liquids. Conditions of the leaves 21 days thereafter were observed.

[7] = S9 Mix not required, 0.01 μg/plate
[8] = S9 Mix not required, 0.1 μg/plate
[9] = S9 Mix not required, 1.0 μg/plate
[10] = S9 Mix not required, 0.5 μg/plate

SMILES: NC(=O)C(=Cc1ccc([N+](=O)[O-])o1)c1ccco1 [AF-2, 2-(2-furyl)-3-(5-nitro-2-furyl)acrylamide, reference compound]
- Positive control, number of back mutation, mean (in parentheses) [1, 7]: (572) Colonies/plate
- Positive control, number of back mutation, single plates [1, 7]: 564 Colonies/plate and 580 Colonies/plate
- Positive control, number of back mutation, mean (in parentheses) ([1]; S9 Mix required, 1.0 μg/plate): (1230) Colonies/plate
- Positive control, number of back mutation, single plates ([1]; S9 Mix required, 1.0 μg/plate): 1275 Colonies/plate and 1184 Colonies/plate
- Positive control, number of back mutation, mean (in parentheses) [2, 8]: (568) Colonies/plate
- Positive control, number of back mutation, single plates [2, 8]: 575 Colonies/plate and 560 Colonies/plate
- Positive control, number of back mutation, mean (in parentheses) ([2]; S9 Mix required, 0.5 μg/plate): (665) Colonies/plate
- Positive control, number of back mutation, single plates ([2]; S9 Mix required, 0.5 μg/plate): 661 Colonies/plate and 668 Colonies/plate
- Positive control, number of back mutation, mean (in parentheses) [3, 7]: (152) Colonies/plate
- Positive control, number of back mutation, single plates [3, 7]: 155 Colonies/plate and 149 Colonies/plate
- Positive control, number of back mutation, mean (in parentheses) ([3]; S9 Mix required, 10.0 μg/plate): (1267) Colonies/plate
- Positive control, number of back mutation, single plates ([3]; S9 Mix required, 10.0 μg/plate): 1230 Colonies/plate and 1304 Colonies/plate

SMILES: COc1ccc2nc3cc(Cl)ccc3c(NCCCNCCCl)c2c1 [ICR-191, 6-chloro-9-[3-(2-chloroethylamine)-propylamino]-2-methoxyacridine dihydrochloride, reference compound]
- Positive control, number of back mutation, mean (in parentheses) [4, 9]: (4001) Colonies/plate
- Positive control, number of back mutation, single plates [4, 9]: 4068 Colonies/plate and 3934 Colonies/plate
- Positive control, number of back mutation, mean (in parentheses) ([4]; S9 Mix required, 2.0 μg/plate): (262) Colonies/plate
- Positive control, number of back mutation, single plates ([4]; S9 Mix required, 2.0 μg/plate): 257 Colonies/plate and 267 Colonies/plate

SMILES: [N-]=[N+]=[N-] [NaN3, sodium azide, reference compound]
- Positive control, number of back mutation, mean (in parentheses) [5, 10]: (210) Colonies/plate
- Positive control, number of back mutation, single plates [5, 10]: 203 Colonies/plate and 216 Colonies/plate
- Positive control, number of back mutation, mean (in parentheses) ([5]; S9 Mix required, 2.0 μg/plate): (138) Colonies/plate
- Positive control, number of back mutation, single plates ([5]; S9 Mix required, 2.0 μg/plate): 137 Colonies/plate and 138 Colonies/plate

SMILES: Cc1ccc(S(=O)(=O)O)cc1 [p-toluenesulfonic acid]
- plants judged 0: Abnormality was not found on the leaf surface (radish; 1 ppm in tap water): 1 plant^ plants
- plants judged 1: A region discolored to yellow was found on the leaf surface (radish; 1 ppm in tap water): 2 plants
- plants judged 2: A necrotic region was found on the leaf surface (radish; 1 ppm in tap water): 9 plants
- plants judged 0: Abnormality was not found on the leaf surface (radish; 10 ppm in tap water): 1 plant^ plants
- plants judged 1: A region discolored to yellow was found on the leaf surface (radish; 10 ppm in tap water): 2 plants
- plants judged 2: A necrotic region was found on the leaf surface (radish; 10 ppm in tap water): 9 plants
- plants judged 0: Abnormality was not found on the leaf surface (radish; 100 ppm in tap water): 0 plant^ plants
- plants judged 1: A region discolored to yellow was found on the leaf surface (radish; 100 ppm in tap water): 3 plants
- plants judged 2: A necrotic region was found on the leaf surface (radish; 100 ppm in tap water): 9 plants

SMILES: O=[N+]([O-])[O-].[Na+] [sodium nitrate]
- plants judged 0: Abnormality was not found on the leaf surface (radish; 1 ppm in tap water): 2 plants
- plants judged 1: A region discolored to yellow was found on the leaf surface (radish; 1 ppm in tap water): 6 plants
- plants judged 2: A necrotic region was found on the leaf surface (radish; 1 ppm in tap water): 4 plants
- plants judged 0: Abnormality was not found on the leaf surface (radish; 10 ppm in tap water): 2 plants
- plants judged 1: A region discolored to yellow was found on the leaf surface (radish; 10 ppm in tap water): 4 plants
- plants judged 2: A necrotic region was found on the leaf surface (radish; 10 ppm in tap water): 6 plants
- plants judged 0: Abnormality was not found on the leaf surface (radish; 100 ppm in tap water): 2 plants
- plants judged 1: A region discolored to yellow was found on the leaf surface (radish; 100 ppm in tap water): 5 plants
- plants judged 2: A necrotic region was found on the leaf surface (radish; 100 ppm in tap water): 5 plants

SMILES: O=P(O)(O)O [sodium phosphate]
- plants judged 0: Abnormality was not found on the leaf surface ([6]; 1 ppm in tap water): 4 plants
- plants judged 1: A region discolored to yellow was found on the leaf surface ([6]; 1 ppm in tap water): 3 plants
- plants judged 2: A necrotic region was found on the leaf surface ([6]; 1 ppm in tap water): 5 plants
- plants judged 0: Abnormality was not found on the leaf surface ([6]; 10 ppm in tap water): 2 plants
- plants judged 1: A region discolored to yellow was found on the leaf surface ([6]; 10 ppm in tap water): 4 plants
- plants judged 2: A necrotic region was found on the leaf surface ([6]; 10 ppm in tap water): 6 plants
- plants judged 0: Abnormality was not found on the leaf surface ([6]; 100 ppm in tap water): 3 plants
- plants judged 1: A region discolored to yellow was found on the leaf surface ([6]; 100 ppm in tap water): 2 plants
- plants judged 2: A necrotic region was found on the leaf surface ([6]; 100 ppm in tap water): 7 plants
